Laboratory results reported in publication PMC10222378 (Pharmaceuticals, 2023).
Where “and” joins values, the source holds several entries; their conditions need not be identical. Equal values may be shown once. Entries after “also recorded” stand apart in the source; their conditions may differ. Read-outs that look alike come from different tables or passages of the source.

Columns and labels:
[1] = test system: hKV1.1, hKV1.4-IR, hKV1.5, hKV10.1, hKV11.1, hKCa3.1, hNaV1.4, hNaV1.5; experiment: in vitro; conditions: human
Description: (A–D) Currents were evoked from holding potentials of –100 mV by depolarizations to +50 mV for the time interval indicated on the panels. […] (E) hKV11.1 currents were measured with a voltage step from a holding potential of –80 mV to +20 mV, followed by a step to –40 mV, during which the peak current was measured. Pulses were delivered every 30 s. […] Red dashed line indicates no effect. Bars represent the mean of 3–8 independent measurements; error bars indicate the SEM.

[2] = target: T1, hKV1.3 (Homo sapiens, UniProt P22001); experiment: Whole-cell patch clamp on hKV1.3 in activated human lymphocytes; format: cell-based; design: endogenous in cells
T1 sequence (P22001 whole entry): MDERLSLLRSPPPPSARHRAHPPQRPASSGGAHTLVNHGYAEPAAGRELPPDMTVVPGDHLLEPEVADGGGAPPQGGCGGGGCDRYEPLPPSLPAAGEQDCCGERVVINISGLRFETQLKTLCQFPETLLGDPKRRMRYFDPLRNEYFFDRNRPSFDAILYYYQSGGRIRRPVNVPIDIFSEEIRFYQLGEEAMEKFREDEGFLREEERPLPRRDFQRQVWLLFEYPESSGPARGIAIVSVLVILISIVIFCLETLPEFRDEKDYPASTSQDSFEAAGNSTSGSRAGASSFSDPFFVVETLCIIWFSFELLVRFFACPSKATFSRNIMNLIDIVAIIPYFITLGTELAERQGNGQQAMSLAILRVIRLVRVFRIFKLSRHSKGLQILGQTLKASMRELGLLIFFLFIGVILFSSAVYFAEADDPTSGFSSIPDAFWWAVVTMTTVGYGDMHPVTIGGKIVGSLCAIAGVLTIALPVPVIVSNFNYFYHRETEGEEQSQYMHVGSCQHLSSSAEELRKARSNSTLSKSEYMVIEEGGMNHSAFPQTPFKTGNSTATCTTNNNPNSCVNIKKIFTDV
Source text: The essential role of voltage-gated KV1.3 channels in T cell activation and proliferation is well-documented, so we tested whether the proliferation was suppressed in part via a KV1.3 blockade. […]. The open probability of the channel at +50 mV is maximal, and the relatively short duration of the depolarizing periods prevented inactivation. The time between voltage pulses was set to 15 s to avoid the cumulative inactivation of hKV1.3 channels. Under the given experimental conditions (i.e., the voltage protocol used and the lack of Ca^2+ in the pipette solution), the whole-cell currents were conducted exclusively by hKV1.3 channels. […]. Human peripheral blood […] (PBMCs) were isolated from venous blood obtained from anonymized healthy donors. The peripheral blood mononuclear cells were isolated by Histopaque1077 (Sigma-Aldrich Hungary, Budapest, Hungary) density gradient centrifugation. The cells obtained were resuspended in Roswell Park Memorial Institute (RPMI) 1640 medium (Gibco, Cat# 11875085) containing 10% fetal calf serum (FCS, Sigma-Aldrich, St. Louis, MO, USA), 100 μg/mL penicillin, 100 μg/mL streptomycin, and 2 mM L-glutamine, seeded in a 24-well culture plate at a density of 5–6 × 10^5 cells/mL, and grown in a 5% CO2 incubator at 37 °C for 3–5 days. Phytohemagglutinin A (PHA, Sigma-Aldrich, St. Louis, MO, USA) was also added at a concentration of 8–12 μg/mL to the medium to amplify the expression level of KV1.3. CHO cells and PBMCs were gently washed twice with 2 mL of ECS (see below) for the patch clamp experiments. hKV1.3 currents were recorded on activated lymphocytes 3 to 4 days after activation.
(§1) In general, the holding potential was −120 mV.
(§2) […]. […] […].
(§3) […]. All data are presented as means ± SEM.
To examine the binding kinetics, RCF was plotted as a function of time. The association time constant (τon) was determined by fitting the data points with a single exponential function, RCF=RCF0×e^−t/τon+C where RCF0 is the RCF value before the addition of the drug, and C is a constant term.

[3] = target: T2, hKV1.1 (Homo sapiens, UniProt Q09470); experiment: Whole-cell patch clamp on hKV1.1 in CHO cells; format: cell-based; design: host or cells: CHO cells, transient; conditions: estimated from single concentration (200 μM), bimolecular interaction assumed, n = 5, read-out: estimated Kd
T2 sequence (Q09470 whole entry): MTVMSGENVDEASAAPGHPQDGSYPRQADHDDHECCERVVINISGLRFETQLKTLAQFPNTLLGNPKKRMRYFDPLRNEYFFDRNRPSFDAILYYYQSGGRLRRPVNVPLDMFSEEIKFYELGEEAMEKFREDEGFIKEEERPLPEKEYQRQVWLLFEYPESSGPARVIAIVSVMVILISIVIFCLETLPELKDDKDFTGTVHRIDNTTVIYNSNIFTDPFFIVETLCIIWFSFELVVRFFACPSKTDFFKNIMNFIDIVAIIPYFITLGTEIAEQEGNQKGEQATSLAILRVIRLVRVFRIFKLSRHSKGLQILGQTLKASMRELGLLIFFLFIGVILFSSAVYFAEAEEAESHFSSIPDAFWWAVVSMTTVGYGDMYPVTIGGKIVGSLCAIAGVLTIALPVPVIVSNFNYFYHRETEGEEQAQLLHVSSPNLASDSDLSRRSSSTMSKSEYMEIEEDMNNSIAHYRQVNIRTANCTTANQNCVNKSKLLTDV
Source text: (§4) Pulses were delivered every 30 s. […] […]. Red dashed line indicates no effect.
as §1, §2, §3

[4] = target: T3, hKV1.5 (Homo sapiens, UniProt P22460); experiment: Whole-cell patch clamp on hKV1.5 in CHO cells; format: cell-based; conditions: estimated from single concentration (200 μM), bimolecular interaction assumed, n = 4, read-out: estimated Kd
T3 construct: EYFP (pEYFP vector); expressed in transfected cells; host or cells: CHO cells, transient
T3 sequence (P22460 whole entry): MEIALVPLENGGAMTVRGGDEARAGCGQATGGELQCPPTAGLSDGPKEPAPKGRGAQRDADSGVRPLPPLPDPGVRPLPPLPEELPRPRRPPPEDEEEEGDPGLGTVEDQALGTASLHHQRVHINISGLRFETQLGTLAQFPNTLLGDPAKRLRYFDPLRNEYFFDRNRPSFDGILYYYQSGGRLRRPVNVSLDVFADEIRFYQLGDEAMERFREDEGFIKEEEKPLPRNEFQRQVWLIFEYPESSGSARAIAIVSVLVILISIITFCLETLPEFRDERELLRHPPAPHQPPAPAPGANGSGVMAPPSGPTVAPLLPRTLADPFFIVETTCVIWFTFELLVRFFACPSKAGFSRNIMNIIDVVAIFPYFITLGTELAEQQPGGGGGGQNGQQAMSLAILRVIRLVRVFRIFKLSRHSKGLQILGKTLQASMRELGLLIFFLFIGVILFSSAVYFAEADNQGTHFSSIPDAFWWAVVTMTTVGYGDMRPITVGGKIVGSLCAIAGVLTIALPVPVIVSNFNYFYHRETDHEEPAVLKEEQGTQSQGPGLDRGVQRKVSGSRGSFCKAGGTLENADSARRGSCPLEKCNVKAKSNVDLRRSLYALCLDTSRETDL
Source text: as §4, §1, §2, §3

[5] = target: hKV11.1 (hERG) (Homo sapiens, UniProt Q12809); experiment: in vitro; conditions: HEK293 cells stably expressing hKV11.1 (hERG), pH 7.35
[6] = target: T4, hNaV1.4 (Homo sapiens, UniProt P35499); experiment: Whole-cell patch clamp on hNaV1.4 stably expressed in HEK293 cells; format: cell-based; conditions: estimated from single concentration (200 μM), bimolecular interaction assumed, n = 4, read-out: estimated Kd
T4 construct: expressed in transfected cells
Source text: as §4, §1, §2, §3

[7] = target: T5, hNaV1.5 (Homo sapiens, UniProt Q14524); experiment: Whole-cell patch clamp on hNaV1.5 in CHO cells; format: cell-based; conditions: estimated from single concentration (200 μM), bimolecular interaction assumed, n = 6, read-out: estimated Kd
T5 construct: expressed in transfected cells; host or cells: CHO cells, transient
T5 sequence (Q14524 whole entry): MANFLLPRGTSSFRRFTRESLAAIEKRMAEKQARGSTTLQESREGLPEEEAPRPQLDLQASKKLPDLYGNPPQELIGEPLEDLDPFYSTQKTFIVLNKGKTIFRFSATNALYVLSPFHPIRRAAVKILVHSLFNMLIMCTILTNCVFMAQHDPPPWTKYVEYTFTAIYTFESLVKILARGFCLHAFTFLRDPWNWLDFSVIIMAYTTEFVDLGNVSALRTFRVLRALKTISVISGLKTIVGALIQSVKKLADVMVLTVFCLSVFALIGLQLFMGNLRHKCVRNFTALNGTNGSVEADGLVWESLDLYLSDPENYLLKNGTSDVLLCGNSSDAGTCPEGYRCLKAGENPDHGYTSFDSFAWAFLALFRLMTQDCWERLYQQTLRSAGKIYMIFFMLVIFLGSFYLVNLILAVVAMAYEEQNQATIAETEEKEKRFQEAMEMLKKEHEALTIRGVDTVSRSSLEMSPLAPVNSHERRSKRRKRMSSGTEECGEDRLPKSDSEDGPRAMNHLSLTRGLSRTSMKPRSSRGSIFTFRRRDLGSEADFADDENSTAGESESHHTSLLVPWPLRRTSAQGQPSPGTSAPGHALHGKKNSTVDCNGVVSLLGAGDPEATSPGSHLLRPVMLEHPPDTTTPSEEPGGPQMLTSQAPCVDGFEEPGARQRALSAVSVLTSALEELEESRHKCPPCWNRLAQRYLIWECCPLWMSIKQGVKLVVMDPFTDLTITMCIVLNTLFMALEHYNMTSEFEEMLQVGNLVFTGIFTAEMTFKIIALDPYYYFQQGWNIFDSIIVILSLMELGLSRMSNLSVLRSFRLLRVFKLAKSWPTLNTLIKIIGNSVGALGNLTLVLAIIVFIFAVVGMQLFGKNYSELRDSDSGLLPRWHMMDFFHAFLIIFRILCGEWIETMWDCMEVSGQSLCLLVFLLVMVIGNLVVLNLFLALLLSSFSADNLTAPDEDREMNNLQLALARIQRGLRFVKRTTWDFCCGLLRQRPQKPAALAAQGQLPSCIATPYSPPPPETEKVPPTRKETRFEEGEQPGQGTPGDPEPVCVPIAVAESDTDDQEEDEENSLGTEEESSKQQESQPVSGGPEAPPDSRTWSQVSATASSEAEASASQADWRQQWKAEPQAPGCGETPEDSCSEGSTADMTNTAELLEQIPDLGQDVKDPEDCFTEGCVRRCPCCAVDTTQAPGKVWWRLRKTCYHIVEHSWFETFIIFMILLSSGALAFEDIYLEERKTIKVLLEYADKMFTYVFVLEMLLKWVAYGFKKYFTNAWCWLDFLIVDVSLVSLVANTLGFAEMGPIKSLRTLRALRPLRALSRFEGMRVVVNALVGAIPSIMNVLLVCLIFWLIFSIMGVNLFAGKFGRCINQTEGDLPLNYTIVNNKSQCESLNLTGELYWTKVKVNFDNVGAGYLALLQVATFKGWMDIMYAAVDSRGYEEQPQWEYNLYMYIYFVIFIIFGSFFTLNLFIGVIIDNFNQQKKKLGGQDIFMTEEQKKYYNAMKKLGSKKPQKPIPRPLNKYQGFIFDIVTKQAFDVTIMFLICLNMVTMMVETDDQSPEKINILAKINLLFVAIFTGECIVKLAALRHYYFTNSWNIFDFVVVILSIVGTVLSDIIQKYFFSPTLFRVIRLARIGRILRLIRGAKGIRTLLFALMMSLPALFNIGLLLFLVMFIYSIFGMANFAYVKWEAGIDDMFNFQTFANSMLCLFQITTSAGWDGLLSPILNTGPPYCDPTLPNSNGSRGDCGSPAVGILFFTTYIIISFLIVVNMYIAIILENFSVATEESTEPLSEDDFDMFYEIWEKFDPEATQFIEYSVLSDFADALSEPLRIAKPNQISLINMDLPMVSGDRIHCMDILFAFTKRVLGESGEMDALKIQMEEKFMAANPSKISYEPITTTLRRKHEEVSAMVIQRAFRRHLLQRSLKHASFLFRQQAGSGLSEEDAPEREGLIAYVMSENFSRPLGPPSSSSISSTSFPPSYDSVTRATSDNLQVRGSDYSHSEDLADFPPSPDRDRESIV
Source text: as §4, §1, §2, §3

[8] = target: T6, hKCa3.1 (Homo sapiens, UniProt O15554); experiment: Whole-cell patch clamp on hKCa3.1 in CHO cells; format: cell-based
T6 construct: expressed in transfected cells; host or cells: CHO cells, transient
Source text: as §4, §1, §2, §3

[9] = target: voltage-gated proton (H+) channel (HV1); design: method as in PMID 24912149; conditions: known HV1 inhibitor, value quoted in abstract; amphibian expression system; cited from earlier work
[10] = target: hKV1.4-IR (Homo sapiens, UniProt P22459); experiment: Whole-cell patch clamp on hKV1.4-IR in CHO cells; format: cell-based; conditions: estimated from single concentration (200 μM), bimolecular interaction assumed, n = 6, read-out: estimated Kd
hKV1.4-IR, sequence (P22459 149-653 limits assumed): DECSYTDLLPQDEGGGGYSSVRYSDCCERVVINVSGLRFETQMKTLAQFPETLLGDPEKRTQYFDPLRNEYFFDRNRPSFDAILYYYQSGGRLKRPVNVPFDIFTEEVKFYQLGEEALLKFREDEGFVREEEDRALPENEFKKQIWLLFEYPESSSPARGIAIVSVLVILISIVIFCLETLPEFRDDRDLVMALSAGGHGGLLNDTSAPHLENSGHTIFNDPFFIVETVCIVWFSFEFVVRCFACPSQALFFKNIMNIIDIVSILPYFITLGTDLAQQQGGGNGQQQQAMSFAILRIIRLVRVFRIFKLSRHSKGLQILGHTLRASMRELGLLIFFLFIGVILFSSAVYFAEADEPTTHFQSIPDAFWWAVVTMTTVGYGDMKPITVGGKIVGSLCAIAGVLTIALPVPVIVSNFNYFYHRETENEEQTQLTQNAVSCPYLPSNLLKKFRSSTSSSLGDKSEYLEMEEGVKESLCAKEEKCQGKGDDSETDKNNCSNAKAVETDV
Source text: as §4, §1, §2, §3

[11] = test system: human lymphocytes; experiment: CFSE lymphocyte proliferation assay after PHA activation; format: cell-based; conditions: 200 μM ClGBI
Description: In this method, following the loading of cells with CFSE dye, each round of cell division is apparent by the reduced dye content and consequent lower fluorescence intensity of the daughter cells. […] Peripheral blood mononuclear cells (PBMCs) were isolated from the heparinized blood of healthy donors (n = 3) using the Ficoll–Hypaque separation method. […] The cells were grown in a humidified chamber at 37 °C and 5% CO2 for 6 days. As a negative control, unstimulated CFSE-labeled PBMCs were cultured in the same condition. […] After 6 days of proliferation, the CFSE-labeled cells were collected and analyzed by flow cytometry in an ACEA NovoCyte 2000R cytometer (Agilent, Santa Clara, CA, USA).

[12] = target: T7, hKV10.1 (Homo sapiens, UniProt O95259); experiment: Whole-cell patch clamp on hKV10.1 in CHO cells; format: cell-based; conditions: estimated from single concentration (200 μM), bimolecular interaction assumed, n = 5, read-out: estimated Kd
T7 construct: host or cells: CHO cells, transient, co-transfected with a separate GFP plasmid
T7 sequence (O95259 1-989): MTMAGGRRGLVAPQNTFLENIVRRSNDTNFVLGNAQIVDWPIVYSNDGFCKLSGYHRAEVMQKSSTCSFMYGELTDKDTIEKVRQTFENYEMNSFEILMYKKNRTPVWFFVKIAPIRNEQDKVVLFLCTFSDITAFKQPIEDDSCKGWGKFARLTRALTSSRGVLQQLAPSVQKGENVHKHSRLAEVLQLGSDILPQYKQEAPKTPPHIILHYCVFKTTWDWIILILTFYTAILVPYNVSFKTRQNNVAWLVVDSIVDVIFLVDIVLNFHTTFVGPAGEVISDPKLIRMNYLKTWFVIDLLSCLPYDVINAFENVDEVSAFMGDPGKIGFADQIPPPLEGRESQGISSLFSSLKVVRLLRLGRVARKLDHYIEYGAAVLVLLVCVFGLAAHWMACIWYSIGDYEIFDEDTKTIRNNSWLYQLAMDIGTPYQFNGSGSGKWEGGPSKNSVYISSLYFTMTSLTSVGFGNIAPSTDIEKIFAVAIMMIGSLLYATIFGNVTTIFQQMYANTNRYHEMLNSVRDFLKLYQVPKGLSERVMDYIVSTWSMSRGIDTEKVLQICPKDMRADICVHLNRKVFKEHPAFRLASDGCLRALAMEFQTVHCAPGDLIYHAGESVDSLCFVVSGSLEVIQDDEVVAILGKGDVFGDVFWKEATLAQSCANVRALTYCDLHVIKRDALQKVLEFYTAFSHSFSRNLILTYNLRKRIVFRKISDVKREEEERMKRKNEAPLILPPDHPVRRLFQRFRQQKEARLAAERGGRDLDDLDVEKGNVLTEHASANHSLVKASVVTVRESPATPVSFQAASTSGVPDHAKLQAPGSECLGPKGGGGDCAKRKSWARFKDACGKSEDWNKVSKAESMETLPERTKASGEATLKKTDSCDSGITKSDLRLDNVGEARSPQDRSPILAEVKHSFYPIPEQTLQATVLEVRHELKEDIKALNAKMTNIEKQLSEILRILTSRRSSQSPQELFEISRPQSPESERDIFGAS
Source text: as §4, §1, §2, §3

[13] = target: T2, hKV1.1; conditions: read-out: Kd (concentration of positive control equivalent to its Kd), no reference given; cited from earlier work
[14] = target: T1, hKV1.3; conditions: read-out: Kd (concentration of positive control equivalent to its Kd), no reference given; cited from earlier work

Question: With `N=C(N)Nc1nc2ccc(Cl)cc2[nH]1` [ClGBI, 5-chloro-2-guanidinobenzimidazole] as the compound, how does the Kd [1] read?
Answer: Its Kd is 12 to 894 µM.

Question: What about the “time to reach block saturation” value ([2]; 200 μM ClGBI) of the same compound?
Answer: The value was 50 to 100 s.

Question: What about the “reduction in current amplitude” value ([2]; 200 μM ClGBI, equilibrium block) of the same compound?
Answer: Its value is ~ 75%.

Question: And the “remaining current fraction (RCF)” value ([2]; 200 μM ClGBI, equilibrium block, n = 9)?
Answer: Its value is 0.25 ± 0.01.

Question: What about the “association time constant τon” value ([2]; 200 μM ClGBI, single exponential fit, n = 3) of the same compound?
Answer: The value was 22.1 ± 2.7 s.

Question: And the “reversibility of block on washout” value ([2]; after 200 μM ClGBI, perfusion with ClGBI-free ECS)?
Answer: The value was “complete recovery from block; also recorded: complete recovery from current inhibition”.

Question: And the “Hill coefficient nH” value ([2]; two-parameter Hill fit of RCF dose-response)?
Answer: The value was 1.1 ± 0.07.

Question: What about the Kd ([2]; two-parameter Hill fit of RCF dose-response, human lymphocytes) of the same compound?
Answer: The Kd was 72.4 µM and ~72 µM.

Question: What about the potency estimated from few doses [3] of the same compound?
Answer: The potency estimated from few doses was 324 ± 13.1 µM.

Question: What about the potency estimated from few doses [4] of the same compound?
Answer: Its potency estimated from few doses is 310 ± 43.6 µM.

Question: What about the potency estimated from few doses [5] of the same compound?
Answer: The potency estimated from few doses was 12 ± 2.1 µM.

Question: What about the potency estimated from few doses [6] of the same compound?
Answer: The potency estimated from few doses was 591 ± 123 µM.

Question: What about the potency estimated from few doses [7] of the same compound?
Answer: Its potency estimated from few doses is 187 ± 35.7 µM.

Question: What about the “inhibition of KCa3.1” value ([8]; 200 μM ClGBI) of the same compound?
Answer: The value was “inhibited KCa3.1 to a small extent”.

Question: What about the potency estimated from few doses ([8]; CHO, estimated from single concentration (200 μM), bimolecular interaction assumed, n = 5, read-out: estimated Kd) of the same compound?
Answer: The potency estimated from few doses was 894 ± 134 µM.

Question: And the Kd [9]?
Answer: Its Kd is roughly 26 µM.

Question: And the potency estimated from few doses [10]?
Answer: The potency estimated from few doses was 188 ± 38 µM.

Question: And the “effect on lymphocyte proliferation” value [11]?
Answer: The value was “completely blocked; also recorded: significant suppression”.

Question: And the potency estimated from few doses [12]?
Answer: The potency estimated from few doses was 77.5 ± 14.2 µM.

Question: For `CC[N+](CC)(CC)CC` [TEA^+, tetraethylammonium], which Kd [13] is on record?
Answer: Its Kd is 300 µM.

Question: And the Kd [14]?
Answer: The Kd was 10000 µM.
